Six compounds from patent US20120252894A1, “COMPOUNDS FOR ALLEVIATING PAIN AND STRESS IN FETUS AND NEWBORN” (priority 2011, published 2012) can be followed below.

One experiment deals with newborn rats. In words: Thermal tail-flick assay (tail immersion, 50° C. water). The experiment is classed as in vivo, rat. Particulars: for change in tail withdrawal delay: P0 rats, atosibane 2 μg/kg or SSR126768A 1 μg/kg intraperitoneal; for change in tail-flick delays: P2 rats, oxytocin receptor blockers; for reversal of the effect of oxytocin receptor blockers on tail-flick: newborn rats. Background: Thermal pain tests record how soon the animal reacts.

For the next experiment, the system named is neonatal rats. Nature of the experiment: Vocalization evoked by electrical stimulation of the whisker pad in decerebrated rat pups. The experiment is classed as in vivo. How it is done:
Under isoflurane (1.5%) anaesthesia, rat pups were implanted with bipolar electrodes into the whisker pad and decerebrated at the upper pons level via a hole drilled 1 mm posterior to lambda using blunted 36 gouge needle, to avoid blood bleeding the hole was covered by cyanoacrylate after. After 10 min (P0) or one hour (P1-2 pups) of recovery period, the pups were wrapped by cotton and placed on the thermal blanket (38° C.). Whisker pad was stimulated by electrical train pulses (1 ms pulse duration, 5-25 V amplitude, 50 Hz, 1 minute inter-train interval). Vocalization response was recorded by microphone, digitized at 10 kHz using Digidata 1440 interface (Axon Instruments) and analyzed offline using Matlab (MathWorks, Natick, Mass.). To quantify the vocalization response, we calculated scalar integral (□) as following: (i) raw acustogram was converted to scalar acustogram by inverting all negative values to positive values; (ii) scalar acustogram was corrected for the baseline activity level by subtraction of the mean scalar acustogram value calculated during 1 minute before stimulation; (iii) scalar acustogram integral was calculated as cumulative, corrected for the baseline, scalar acustogram during 5 sec after stimulation.
In the experiments in vivo, Oxytocin (Sigma) 50 μM was injected at 0.1 ml/5 g (diluted in saline) IP, 30 min before testing. Bumetanide (Sigma) solution 25 μg/ml was injected IP at the dose of 5 μmol/kg, 30 min before testing. Atosiban (Sigma) (diluted in saline) was injected at 2 μg/kg, IP, 30 min before testing. SSR126768A (gift from Sanofi-Synthelabo) diluted in saline injected at 1 mg/kg IP, 30 min before testing. Sham injections in the control group were performed with equal volumes of saline.
In the second experiment, we studied oxytocin-modulation of the pain responses by measuring vocalization evoked by electrical stimulation of the whisker pad. Animals were decerebrated at caudal midbrain levels to cut the descending oxytocin projections from the VPN to spinal cord and to prevent noxious input to the brain. Electrical stimulation of the whisker pad evoked vocalization in the neonatal rats despite of decerebration. Vocalizing response was composed of several bursts with a dominant frequency in the range from 2.7 to 5 kHz (mean frequency 3.9±0.1 kHz n=24, rat P0-2). To quantify vocalization response, we calculated scalar acusticogram integral. In agreement with the results of the thermal tail-flick assay, oxytocin receptor blocker atosiban (2 μg/kg) increased vocalization response in the fresh newborn P0 rats (to 155±28%, n=8, p=0.0003;). […]

Experiment [1] concerns isolated spinal cord preparations. Nature of the experiment: Primary afferents depolarization (DR-DRPs) in isolated spinal cord. Also on record: species or system rat. How it is done: Experiments were performed on lumbar (L) spinal cord preparations isolated from neonatal Wistar rats (P0-P1). All efforts were made to reduce the number of animals used and to minimize animal suffering. The experimental setup was the same as described previously (Taccola and Nistri, 2004). The spinal cord was superfused (5 ml min-1) with Krebs solution of the following composition (in mM): NaCl, 113; KCl, 4.5; MgCl2×7H2O, 1; CaCl2, 2; NaH2PO4, 1; NaHCO3, 25; glucose, 11; gassed with 95% O2-5% CO2; pH 7.4 at room temperature. All agents were bath-applied via the superfusing solution at the concentrations mentioned in the text. Recordings were obtained with glass suction electrodes (containing an Ag—AgCl pellet) filled with Krebs solution. Miniature bipolar suction electrodes were used in order to deliver single or repetitive electrical stimuli to DRs to evoke DR-DR potentials (DR-DRPs) (Kerkut and Bagust, 1995). Stimulus intensity was calculated in terms of threshold (Th), defined as the minimum intensity to elicit a detectable response in the homolateral VR.
Depolarizing action of GABA on the axons of primary afferents underlies primary afferents depolarization (PAD), that is a depolarizing response evoked by dorsal root stimulation in the neighboring dorsal root (Willis, 2006; Rudomin and Schmidt, 1999). Therefore, in the next experiments we have studied the effect of oxytocin on PAD in the in vitro isolated spinal cord preparations obtained from newborn rats.

Experiment [2] deals with trigeminal sensory neurons. Nature of the experiment: Calcium imaging of GABA-evoked intracellular calcium increases. The experiment is classed as cell-based, rat. The settings on record: oxytocin 1 μM; for GABA-evoked intracellular calcium increases: trigeminal neurons from newborn rats, five hours in vitro. How it is done:
Trigeminal sensory neurons were obtained from P0 rats. Animals were anesthetized by CO2 and decapitated. Trigeminal ganglia were excised and enzymatically dissociated in F12 medium containing 0.25 mg/ml trypsin, 1 mg/ml collagenase and 0.2 mg/ml DNAse (Sigma) at 37° C. Cells were plated on poly-1-lysine-coated Petri dishes in F12 medium with 10% fetal calf serum and examined 5 hours after plating. For Ca2+ imaging experiments cells were incubated for 40 min at 20-22° C. in physiological solution containing Fluo3 (AM ester cell-permeable compound; 1 μM; Molecular Probes), followed by a 30 min washout period. Fluorescence emission was detected with a Cell-R imaging system (Olympus, Hamburg, Germany). Images were acquired with 200 ms exposure time and single cell responses were analyzed with the Cell-R software. All drugs were applied via fast perfusion system (RDS-200, BioLogic Science Instruments Grenoble, France). Only cells with two stable control GABA transients were taken into analysis. Intracellular Ca2+ transients were expressed as percent amplitude increase (ΔF/F0, where F0 is the baseline fluorescence level and ΔF is the increment over baseline). Ca2+ transient intensity data was exported and then analyzed off-line using Excel and Origin (version 8.0) software. Significance was analyzed by non-parametric Mann-Witney test.
Because analgesic action of oxytocin in adult rats involves modulation of GABAergic control of the primary nociceptive afferents (Condes-Lara et al., 2009), we studied the effect of oxytocin on GABA responses in sensory trigeminal neurons, which detect noxious stimuli and conduct them to the spinal cord. Experiments were performed in primary cultures of trigeminal neurons dissociated from newborn rats and kept for five hours in vitro. In keeping with previous observations (Wang et al., 1994; Reichling et al., 1994), activation of GABA receptors induced robust transient increases of intracellular calcium in trigeminal neurons indicating depolarizing action of GABA and calcium entry into the cells via voltage-gated calcium channels. […]
In general terms: A change in cytosolic calcium serves as a functional read-out for many receptors and channels.

The next experiment addresses T1, TRPV1 receptors (Rattus norvegicus, UniProt O35433).
T1 construct: endogenous in cells; host or cells: acutely dissociated primary sensory neurons (trigeminal ganglia per methods; called DRG neurons in results) from P0 rats
In words: Calcium imaging of capsaicin-evoked responses in DRG neurons. The experiment is classed as cell-based.

Another experiment addresses T2, P2X3 receptor (Rattus norvegicus, UniProt P49654).
T2 construct: endogenous in cells; host or cells: acutely dissociated primary sensory neurons (trigeminal ganglia per methods; called DRG neurons in results) from P0 rats
T2 sequence (P49654 1-397): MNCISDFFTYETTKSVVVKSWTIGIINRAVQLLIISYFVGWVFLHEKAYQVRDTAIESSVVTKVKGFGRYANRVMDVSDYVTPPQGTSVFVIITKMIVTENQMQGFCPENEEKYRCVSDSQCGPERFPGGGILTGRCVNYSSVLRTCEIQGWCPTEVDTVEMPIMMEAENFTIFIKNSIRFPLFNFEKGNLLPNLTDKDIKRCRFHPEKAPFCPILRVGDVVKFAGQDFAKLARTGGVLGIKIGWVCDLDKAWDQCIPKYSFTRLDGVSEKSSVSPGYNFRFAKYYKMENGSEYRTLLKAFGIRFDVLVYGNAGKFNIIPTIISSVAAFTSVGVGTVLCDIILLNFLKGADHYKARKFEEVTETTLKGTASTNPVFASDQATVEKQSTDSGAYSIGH
Nature of the experiment: Calcium imaging of α-β-meATP-evoked responses in DRG neurons. The experiment is classed as cell-based.

In the next experiment the test system is GABA(A) channels. In words: Cell-attached single GABA(A) channel recordings (GABA driving force). The experiment is classed as cell-based, rat. Particulars: immature trigeminal neurons; oxytocin 1 μM (control 38.7±2.4 mV). As to the method: Single GABA channel recordings were performed from the trigeminal sensory neurons prepared as described above. Cell attached patch-clamp recordings were performed using Axopatch 200A (Axon Instruments, Union City, Calif.) and EPC-9 (HEKA Elektronik Dr. Schulze GmbH, Lambrecht/Pfalz, Germany) amplifiers. Patch electrodes were made from borosilicate glass capillaries (GC150F-15, Clark Electromedical Instruments). For recordings of single GABA(A) channels, patch pipette solution contained (in mM): NaCl 120, TEA-Cl 20, KCl 5, 4-aminopyridine 5, CaCl2 0.1, MgCl2 10, glucose 10, Hepes-NaOH 10 buffered to pH 7.2-7.3 and GABA (1-5 μM) was added at the day of experiment from 1 mM frozen stock solution. Driving force for GABA(A) receptor mediated currents was determined from the current-voltage relationships of the currents through single GABA(A) channels single as described earlier (Tyzio et al., 2006) and corrected for an error of 2 mV (Tyzio et al., 2008).
DFGABA was deduced from reversal potential of the currents via GABA(A) channels (Serafini et al., 1995; Tyzio et al., 2006; Tyzio et al., 2008). In control conditions, GABA exerted strongly depolarizing action on the immature trigeminal neurons with DFGABA of 38.7±2.4 mV (n=6). In the presence of oxytocin (1 μM), DFGABA reduced to 17.7±6.7 mV (n=5; P<0.05).

Setting [3] is: newborn rats, drug alone (oxytocin 1 μM; atosiban 10 μM).
Where [4] appears, read: recordings between 12 and 24 hours after birth, atosiban 10 μM, oxytocin.

Where a SMILES comes first, the peptide text is derived from it. Bridges are numbered along the chain shown (N, C = ends). [ ]: non-standard residue; d: D form. Orn = NCCC[C@H](N)C(=O)O; Mpa = O=C(O)CCS

T1 sequence (O35433 whole entry): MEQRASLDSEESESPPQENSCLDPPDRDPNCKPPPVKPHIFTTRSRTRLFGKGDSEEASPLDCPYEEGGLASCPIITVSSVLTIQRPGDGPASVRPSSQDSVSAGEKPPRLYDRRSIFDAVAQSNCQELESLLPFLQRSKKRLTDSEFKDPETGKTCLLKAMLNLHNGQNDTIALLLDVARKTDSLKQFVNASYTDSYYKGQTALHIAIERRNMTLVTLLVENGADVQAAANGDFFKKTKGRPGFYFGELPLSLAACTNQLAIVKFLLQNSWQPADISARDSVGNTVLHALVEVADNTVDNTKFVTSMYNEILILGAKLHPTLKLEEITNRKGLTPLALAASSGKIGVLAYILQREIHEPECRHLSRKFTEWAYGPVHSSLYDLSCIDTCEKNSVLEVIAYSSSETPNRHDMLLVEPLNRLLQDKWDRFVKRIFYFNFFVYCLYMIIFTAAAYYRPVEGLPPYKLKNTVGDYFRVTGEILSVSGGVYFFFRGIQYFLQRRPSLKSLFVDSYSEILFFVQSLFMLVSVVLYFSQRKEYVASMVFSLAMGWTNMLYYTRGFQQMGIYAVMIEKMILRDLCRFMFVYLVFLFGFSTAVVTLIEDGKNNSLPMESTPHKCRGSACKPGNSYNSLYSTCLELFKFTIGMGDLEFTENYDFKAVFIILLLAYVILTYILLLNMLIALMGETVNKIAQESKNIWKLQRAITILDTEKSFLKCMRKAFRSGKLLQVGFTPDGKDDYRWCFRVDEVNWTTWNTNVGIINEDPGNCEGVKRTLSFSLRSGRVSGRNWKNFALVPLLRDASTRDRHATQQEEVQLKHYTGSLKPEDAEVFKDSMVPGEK
Experimental for newborn rats: Pregnant and maternal Wistar rats were housed with a 12-h light-dark-cycle, at 24°±1° C., and food and water ad libitum. The day of birth was considered 0 day old (P0). Experiments on P0 rats (male and female) were performed within two hours after birth.
The pup was held in a box with a hole allowing the tail to protrude from it. The inner surface of the box was covered with an aluminum sheet forming an electrical contact with the rat body. The electrical circuit via the sheet, body, tail and water bath was powered by a 1.5 V battery and its connection and disconnection could be easily detected upon the tail immersion and withdrawal from the water, respectively. Electrical signals were digitized at 1 kHz using a Digidata 1200 and recorded to a computer. The distal tip of the tail was lowered into the water bath (50° C.). Latency to withdrawal was recorded as the “pain” parameter, with a 15-second maximum allowable threshold. After three habituation tests, the latency to withdrawal was determined from the average of three consecutive measurements.
We first tested pain sensitivity in the newborn rats using a thermal tail-flick response. In this test, pain sensitivity is reciprocal to the delay in tail withdrawal from the hot water. […] We studied thermal tail-flick response in two age groups: (i) fresh newborn animals which were examined immediately, within an hour, after birth (P0) and (ii) two day-old rat pups (P2). […] We further studied whether endogenous oxytocin is involved in reduced pain in the newborn rats. To block the action of endogenous oxytocin circulating in the newborn pups we used selective blockers of oxytocin receptors atosibane (2 μg/kg, intraperiotoneal) and SSR126768A (1 μg/kg, intraperiotoneal).

Turning to `CCN(Cc1cccnc1)C(=O)c1ccc(Cl)c([C@]2(C)C(=O)N(Cc3ccc(OC)cc3OC)c3ccc(Cl)cc32)c1` [SSR126768A], in the experiment with newborn rats, the “change in tail withdrawal delay” value is listed as “nearly three-fold acceleration in the tail withdrawal” and the “change in tail-flick delays” value is on record as “did not significantly modify the tail-flick delays”.

Consider `CCOc1ccc(C[C@H]2NC(=O)CCSSC[C@@H](C(=O)N3CCC[C@H]3C(=O)N[C@@H](CCCN)C(=O)NCC(N)=O)NC(=O)[C@H](CC(N)=O)NC(=O)[C@H]([C@@H](C)O)NC(=O)[C@H]([C@@H](C)CC)NC2=O)cc1` [atosiban] ([Mpa][dY](Et)ITNCP[Orn]G-NH2; disulfide 1-6), for which the “change in tail withdrawal delay” value with newborn rats was “nearly three-fold acceleration in the tail withdrawal”. In addition, the “change in tail-flick delays” value with newborn rats was “did not significantly modify the tail-flick delays”. The “vocalization response (scalar acusticogram integral)” value in the experiment on neonatal rats (P0 rats, atosiban 2 μg/kg) was determined as 155±28%. Besides, in the experiment with neonatal rats (P1-2 rats, atosiban on top of exogenous oxytocin), the “vocalization response, from control level” value was determined as 84±38%. The “peak of DR-DRPs, % of control” value in experiment [1] (atosiban 10 μM added to oxytocin 1 μM) is on record as 106.0±20.8%; in experiment [1] (setting [3]), 112.7±9.1%; in experiment [1] (setting [4]), 90.0±9.8%.

Take `CCCCNc1cc(C(=O)O)cc(S(N)(=O)=O)c1Oc1ccccc1` [bumetanide]: the tail-flick responses result in the experiment with newborn rats (bumetanide 10 μM/kg, both age groups (P0 and P2)) was “strongly delayed the tail-flick responses”. Besides, the “reversal of the effect of oxytocin receptor blockers on tail-flick” value in the experiment on newborn rats was “reversed the effect of oxytocin receptor blockers”. The “vocalization response (scalar acusticogram integral)” value with neonatal rats (P1-2 rats, drug alone) worked out at 72±16%. In addition, in experiment [2], the “GABA-evoked intracellular calcium increases” value is on record as “suppressed the GABA receptor mediated increases in intracellular calcium”. For the same compound, the “peak of DR-DRPs, % with respect to control values” in experiment [1] (bumetamide 20 μM added to atosiban 10 μM) was 66.6±13.8%.

Regarding `COc1cc(CNC(=O)CCCC/C=C/C(C)C)ccc1O` [capsaicin], the “Ca2+ response evoked by agonist” value at TRPV1 receptors (200 nM, 2 s pulses at 10 min intervals) was “evoked transient, and quite stable Ca2+ increases”.

As to `CC[C@H](C)[C@@H]1NC(=O)[C@H](Cc2ccc(O)cc2)NC(=O)[C@@H](N)CSSC[C@@H](C(=O)N2CCC[C@H]2C(=O)N[C@@H](CC(C)C)C(=O)NCC(N)=O)NC(=O)[C@H](CC(N)=O)NC(=O)[C@H](CCC(N)=O)NC1=O` [oxytocin], the “analgesic effect in tail-flick test” value in the experiment with newborn rats (exogenous oxytocin 1 μg/kg systemic, newborn and P2 rats) is recorded as “dramatic analgesic effect”. For the same compound, the “reversal of the effect of oxytocin receptor blockers on tail-flick” value in the experiment on newborn rats was “partially reverse the effects of the competitive oxytocin receptor blockers”. Also, the “vocalization response (scalar acusticogram integral)” value in the experiment with neonatal rats (P1-2 rats, drug alone) was found to be 41±12%. In experiment [2] (not shown), the “duration of slow transient responses induced by the drug” value lay within 60 to 80 s. In addition, the “GABA-evoked intracellular calcium increases” value in experiment [2] was “significantly reduced GABA-evoked calcium increases”. In addition, the “amplitude of α-β-meATP (10 μM) evoked Ca2+ responses” value at P2X3 receptor (1 μM-OT for 20-30 min) is “did not significantly change the amplitude”. The “amplitude of capsaicin (200 nM) evoked Ca2+ responses” value at TRPV1 receptors (1 μM-OT for 20-30 min) was “did not significantly change the amplitude”. In the experiment on GABA(A) channels, the “GABA driving force (DFGABA)” value came to 17.7±6.7 mV. The “peak of DR-DRPs, % of control” value in experiment [1] (setting [3]) is on record as 93.6±5.6%; in experiment [1] (setting [4]) it was 77.8±21.6%.

On to `Nc1ncnc2c1ncn2[C@@H]1O[C@H](COP(=O)(O)CP(=O)(O)OP(=O)(O)O)[C@@H](O)[C@H]1O` [α-β-methylenATP], for which the “Ca2+ response evoked by agonist” value on P2X3 receptor (10 μM, 2 s pulses at 10 min intervals) was “evoked transient, and quite stable Ca2+ increases”.
